Data as given in the supplement of paper PMC6045584.
± gives the standard deviation of the averaged measurements.

Assays:
BLEOMYCIN = compound: Cc1c(N)nc([C@H](CC(N)=O)NC[C@H](N)C(N)=O)nc1C(=O)N[C@H](C(=O)N[C@H](C)[C@@H](O)[C@H](C)C(=O)N[C@H](C(=O)NCCc1nc(-c2nc(C(=O)NCCC[S+](C)C)cs2)cs1)[C@@H](C)O)[C@@H](OC1OC(CO)C(O)C(O)C1OC1OC(CO)C(O)C(OC(N)=O)C1O)c1cnc[nH]1 [BLEOMYCIN]; assay: surviving fraction relative to DMSO-only wells; higher = less growth inhibition; conditions: exposure time: 5 days
How it was run: (§1)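 A line counted only if its three screens reached replicate Pearson r >0.7 and median Z' >0.3. Tumour cells in log phase were seeded at 250–500 per well in 384-well plates and, after 24 hours, kept in continuous contact with inhibitors at 0.5, 1, 5, 10, 50, 100, 500 and 1000 nM for five days. Surviving fraction was taken from CellTiter-Glo luminescence relative to the median of DMSO-only wells.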

[1] = compound: C[C@@H]1CN(CC(=O)Nc2ccc3c(c2)Cc2cccc(-c4cc(=O)cc(N5CCOCC5)o4)c2S3)C[C@H](C)O1; assay: as above; conditions: exposure time: 5 days
How it was run: as §1

Test System	surviving fraction (BLEOMYCIN; 0.5 nM)	surviving fraction (BLEOMYCIN; 1 nM)	surviving fraction (BLEOMYCIN; 5 nM)	surviving fraction (BLEOMYCIN; 10 nM)	surviving fraction (BLEOMYCIN; 50 nM)	surviving fraction (BLEOMYCIN; 100 nM)	surviving fraction (BLEOMYCIN; 500 nM)	surviving fraction (BLEOMYCIN; 1000 nM)	surviving fraction ([1]; 0.5 nM)	surviving fraction ([1]; 1 nM)	surviving fraction ([1]; 5 nM)	surviving fraction ([1]; 10 nM)	surviving fraction ([1]; 50 nM)	surviving fraction ([1]; 100 nM)	surviving fraction ([1]; 500 nM)	surviving fraction ([1]; 1000 nM)
G292 BONE	0.912 ± 0.048	0.887 ± 0.0095	0.801 ± 0.052	0.741 ± 0.067	0.553 ± 0.027	0.474 ± 0.02	0.315 ± 0.017	0.276 ± 0.0065	0.9787 ± 0.009	1.03 ± 0.026	0.995 ± 0.026	1 ± 0.046	0.994 ± 0.03	0.977 ± 0.034	0.856 ± 0.053	0.764 ± 0.017
HCC38 BREAST	0.725 ± 0.19	0.725 ± 0.085	0.793 ± 0.22	0.776 ± 0.18	0.91 ± 0.23	0.781 ± 0.11	0.697 ± 0.14	0.498 ± 0.046	0.973 ± 0.15	0.988 ± 0.11	1.08 ± 0.19	1.02 ± 0.17	0.698 ± 0.23	0.631 ± 0.086	0.418 ± 0.12	0.391 ± 0.06
HCC70 BREAST	0.965 ± 0.055	1 ± 0.086	0.935 ± 0.13	0.981 ± 0.026	0.835 ± 0.052	0.746 ± 0.052	0.606 ± 0.097	0.47 ± 0.076	1.03 ± 0.038	1.07 ± 0.092	1.1 ± 0.1	1.14 ± 0.07	1.15 ± 0.044	1.2 ± 0.037	1.1 ± 0.041	1.07 ± 0.02
HMLE3 BREAST	0.873 ± 0.098	0.892 ± 0.032	0.858 ± 0.085	0.907 ± 0.046	0.933 ± 0.044	0.967 ± 0.055	0.956 ± 0.042	0.864 ± 0.064	1 ± 0.041	0.914 ± 0.069	0.985 ± 0.082	0.954 ± 0.042	1 ± 0.058	0.949 ± 0.12	0.918 ± 0.024	0.807 ± 0.047
HMT3552 BREAST	0.873	0.943	0.9	0.807	0.55	0.299	0.15	0.182	0.943	0.938	0.979	1.01	0.942	0.855	0.824	0.739
HS578T BREAST	0.759 ± 0.12	0.774 ± 0.11	0.842 ± 0.043	0.783 ± 0.071	0.746 ± 0.074	0.596 ± 0.1	0.364 ± 0.021	0.359 ± 0.033	0.996 ± 0.12	0.965 ± 0.14	0.861 ± 0.04	0.883 ± 0.052	0.855 ± 0.13	0.814 ± 0.13	0.867 ± 0.089	0.69 ± 0.042
